Here are results for 17 compounds from patent US10323041B2, “Bicyclic derivatives, a process for their preparation and pharmaceutical compositions containing them” (LES LABORATOIRES SERVIER, priority 2015, dated 2019).

SMILES strings stand for the structures. Read-outs that look alike come from different tables or passages of the source.

In one assay the target is Mcl-1 protein (Homo sapiens, UniProt Q07820). Kind of assay: Inhibition of Mcl-1 by the fluorescence polarisation technique. It counts as binding. How it is done:
The relative binding potency of each compound was determined via fluorescence Polarisation (FP). The method utilised a Fluorescein labelled ligand Fluorescein-βAla-Ahx-[A-REIGAQLRRMADDLNAQY (SEQ ID NO: 1)]-OH; mw 2,765) which binds to the Mcl-1 protein (such that corresponds to the UniProtKB® primary accession number: Q07820) leading to an increased anisotropy measured in milli-polarisation (mP) units using a reader. The addition of a compound which binds competitively to the same site as the ligand will result in a greater proportion of unbound ligand in the system indicated by a decrease in mP units.
Method 1: An 11 point serial dilution of each compound was prepared in DMSO and 2 μl transferred into flat bottomed, low binding, 384-well plate (final DMSO concentration 5%). 38 μl of buffer (10 mM 4-(2-hydroxyethyl)-1-piperazineethanesulfonic acid [HEPES], 150 mM NaCl, 0.05% Tween 20, pH 7.4), containing the Fluorescein labelled ligand (final concentration 1 nM) and Mcl-1 protein (final concentration 5 nM) was then added.
(§1) Assay plates were incubated ˜2 hours at room temperature before FP was measured on a […] Synergy2 reader (Ex. 528 nm, Em. 640 nm, Cut off 510 nm) and mP units calculated. The binding of increasing doses of test compound was expressed as a percentage reduction in mP compared to a window established between ‘5% DMSO only’ and ‘100% inhibition’ controls. 11-point dose response curves were plotted with XL-Fit software using a 4-Parameter Logistic Model (Sigmoidal Dose-Response Model) and the inhibitory concentrations that gave a 50% reduction in mP (IC50) were determined. Results obtained using Method 1 are presented in Table 1 below; IC50 of Mcl-1 inhibition obtained using Method 1 are not underlined.
Method 2: An 11 point serial dilution of each compound was prepared in DMSO and 2 μl transferred into flat bottomed, low binding, 384-well plate (final DMSO concentration 5%). 38 μl of buffer (20 mM Na2HPO4, 1 mM EDTA, 50 mM NaCl, pH 7.4), containing the Fluorescein labelled ligand (final concentration 10 nM) and Mcl-1 protein (final concentration 10 nM) was then added.
as §1, with “inhibition’ controls (50 μM unlabelled ligand).” for “inhibition’ controls.”, “Method 2” for “Method 1”, “are” for “are not”

The subject of assay [1] is H929 multiple myeloma tumour line. Briefly: In vitro cytotoxicity, Microculture Tetrazolium Assay on H929 cells. The conditions noted are these: cell viability, read-out: IC50 (M) MTT H929. It counts as cell-based. How it is done: The cytotoxicity studies were carried out on the H929 multiple myeloma tumour line.
The cells are distributed onto microplates and exposed to the test compounds for 48 hours. The cell viability is then quantified by a colorimetric assay, the Microculture Tetrazolium Assay (Cancer Res., 1987, 47, 939-942).

Where [2] appears, read: Method 1 (not underlined) or Method 2 (underlined), underlining not visible, first value where cell prints two, read-out: IC50 (M) Mcl-1 FP.
Where [3] appears, read: Homo sapiens, NCI-H929, exposed for 48 hours.
The mark [4] stands for this setting: @ 10 μM test compound, partial inhibitors.

Mcl-1 protein, sequence (Q07820 whole entry): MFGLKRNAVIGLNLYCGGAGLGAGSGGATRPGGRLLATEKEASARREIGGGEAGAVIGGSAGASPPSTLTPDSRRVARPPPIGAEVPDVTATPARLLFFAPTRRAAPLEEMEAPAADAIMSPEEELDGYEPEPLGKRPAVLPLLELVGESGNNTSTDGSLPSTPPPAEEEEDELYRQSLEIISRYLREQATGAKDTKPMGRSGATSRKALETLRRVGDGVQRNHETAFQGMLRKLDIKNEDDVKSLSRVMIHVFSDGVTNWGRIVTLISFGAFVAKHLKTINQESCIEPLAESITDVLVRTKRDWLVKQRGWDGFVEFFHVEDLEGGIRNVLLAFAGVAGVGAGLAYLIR

As to `COc1ccccc1-c1nccc(COc2ccccc2CC(Oc2cccc3oc(-c4ccc(F)cc4)c(-c4ccc(OCCN5CCN(C)CC5)c(Cl)c4C)c23)C(=O)O)n1` (single isomer, unassigned) [Example 64], the IC50 on Mcl-1 protein (setting [2]) is 7.4e-09 M; in assay [1] (setting [3]) it was 4.71e-08 M. Regarding `COc1ccccc1-c1nccc(COc2ccccc2CC(Oc2cccc3c2c(-c2ccc(OCCN4CCN(C)CC4)c(Cl)c2C)c(-c2ccc(F)cc2)n3C)C(=O)O)n1` (single isomer, unassigned) [Example 69], the IC50 on Mcl-1 protein (setting [2]) was determined as 2.4e-08 M; in assay [1] (setting [3]), 1.04e-07 M. The corresponding values for `COc1ccccc1C[C@@H](Oc1ncnc2oc(-c3ccc(F)cc3)c(-c3ccc(OCCN4CCN(C)CC4)c(Cl)c3C)c12)C(=O)O` [Example 3, (2R)-2-{[5-{3-chloro-2-methyl-4-[2-(4-methylpiperazin-1-yl)ethoxy]phenyl}-6-(4-fluorophenyl)furo[2,3-d]pyrimidin-4-yl]oxy}-3-(2-methoxyphenyl) propanoic acid] are 1.7e-08 M and 3.64e-07 M.

For `Cc1c(-c2c(-c3ccc(F)cc3)oc3ncnc(O[C@H](Cc4ccccc4OCc4cnccn4)C(=O)O)c23)ccc(OCCN2CCN(C)CC2)c1Cl` [Example 4, (2R)-2-{[5-{3-chloro-2-methyl-4-[2-(4-methylpiperazin-1-yl)ethoxy]phenyl}-6-(4-fluorophenyl)furo[2,3-d]pyrimidin-4-yl]oxy}-3-[2-(pyrazin-2-ylmethoxy)phenyl]propanoic acid], the IC50 on Mcl-1 protein (setting [2]) was 2.9e-08 M; in assay [1] (setting [3]) it was 3.29e-07 M. Taken in the same sequence, the figures for `Cc1c(-c2c(-c3ccc(Cl)o3)oc3ncnc(O[C@H](Cc4ccccc4OCc4cnccn4)C(=O)O)c23)ccc(OCCN2CCN(C)CC2)c1Cl` [Example 5, (2R)-2-{[6-(5-chlorofuran-2-yl)-5-{3-chloro-2-methyl-4-[2-(4-methylpiperazin-1-yl)ethoxy]phenyl}furo[2,3-d]pyrimidin-4-yl]oxy}-3-[2-(pyrazin-2-ylmethoxy)phenyl]propanoic acid] were 1.5e-08 M and 6.19e-07 M.

Regarding `COc1ccccc1CC(Nc1ncnc2oc(-c3ccc(F)cc3)c(-c3ccc(OCCN4CCN(C)CC4)c(Cl)c3C)c12)C(=O)O` [Example 7, N-[(5Sa)-5-{3-chloro-2-methyl-4-[2-(4-methylpiperazin-1-yl)ethoxy]phenyl}-6-(4-fluorophenyl)furo[2,3-d]pyrimidin-4-yl]-2-methoxy-D-phenylalanine], the IC50 on Mcl-1 protein (setting [2]) came to 1.1e-07 M; in assay [1] (setting [3]) it was 7.57e-07 M. For `COc1ccccc1-c1nccc(COc2ccccc2C[C@@H](Nc2ncnc3oc(-c4ccc(F)cc4)c(-c4ccc(OCCN5CCN(C)CC5)c(Cl)c4C)c23)C(=O)O)n1` [Example 9, N-[(5Ra)-5-{3-chloro-2-methyl-4-[2-(4-methylpiperazin-1-yl)ethoxy]phenyl}-6-(4-fluorophenyl)furo[2,3-d]pyrimidin-4-yl]-2-{[2-(2-methoxyphenyl)pyrimidin-4-yl]methoxy}-D-phenylalanine], the IC50 amounted to 8.6e-08 M on Mcl-1 protein (setting [2]) and 6.89e-08 M in assay [1] (exposed for 48 hours).

Take `CCc1sc2cccc(OC(Cc3ccccc3)C(=O)O)c2c1-c1ccc(OCCN2CCN(C)CC2)c(Cl)c1C` [Example 51, (2R)-2-[((3Sa)-3-{3-chloro-2-methyl-4-[2-(4-methylpiperazin-1-yl)ethoxy]phenyl}-2-ethyl-1-benzothiophen-4-yl)oxy]-3-phenylpropanoic acid]: the IC50 at Mcl-1 protein (setting [2]) was found to be 3.6e-07 M; on Mcl-1 protein (value after '/', presumably the other FP method (Method 1 / Method 2), read-out: IC50 (M) Mcl-1 FP, second value of the cell) it was 5.5e-09 M; in assay [1] (setting [3]), 1.1e-05 M. Turning to `COc1ccccc1CC(Oc1cccc2c(Cl)c(-c3ccc(F)cc3)n(-c3ccc(OCCN4CCN(C)CC4)c(Cl)c3C)c12)C(=O)O` [Example 57, (2R)-2-{[3-chloro-(1Sa)-1-{3-chloro-2-methyl-4-[2-(4-methylpiperazin-1-yl)ethoxy]phenyl}-2-(4-fluorophenyl)-1H-indol-7-yl]oxy}-3-(2-methoxyphenyl)propanoic acid], the IC50 at Mcl-1 protein (setting [2]) was found to be 1.7e-07 M. Consider `COc1ccccc1CC(Oc1cccc2cc(-c3ccco3)n(-c3ccc(OCCN4CCN(C)CC4)c(Cl)c3C)c12)C(=O)O` [Example 58, (2R)-2-{[(1Ra)-1-{3-chloro-2-methyl-4-[2-(4-methylpiperazin-1-yl)ethoxy]phenyl}-2-(furan-2-yl)-1H-indol-7-yl]oxy}-3-(2-methoxyphenyl)propanoic acid], for which the “percentage fluorescence polarization inhibition” value at Mcl-1 protein (setting [4]) was determined as 51.9% @ 10 μM. `COc1ccccc1CC(Oc1cccc2cc(-c3ccco3)n(-c3ccc(OCCN4CCN(C)CC4)c(Cl)c3C)c12)C(=O)O` [Example 59, (2R)-2-{[(1Sa)-1-{3-chloro-2-methyl-4-[2-(4-methylpiperazin-1-yl)ethoxy]phenyl}-2-(furan-2-yl)-1H-indol-7-yl]oxy}-3-(2-methoxyphenyl)propanoic acid]: the IC50 worked out at 3.6e-08 M on Mcl-1 protein (setting [2]) and 1.24e-06 M in assay [1] (setting [3]).

For the compound `COc1ccccc1CC(Oc1cccc2cc(-c3ccc(F)o3)n(-c3ccc(OCCN4CCN(C)CC4)c(Cl)c3C)c12)C(=O)O` [Example 60, (2R)-2-{[(1Sa)-1-{3-chloro-2-methyl-4-[2-(4-methylpiperazin-1-yl)ethoxy]phenyl}-2-(5-fluorofuran-2-yl)-1H-indol-7-yl]oxy}-3-(2-methoxyphenyl)propanoic acid], the IC50 on Mcl-1 protein (setting [2]) came out at 1.9e-08 M; in assay [1] (setting [3]) it was 5.68e-07 M. For the compound `COc1ccccc1CC(Oc1cccc2oc(-c3ccc(F)cc3)c(-c3ccc(OCCN4CCN(C)CC4)c(Cl)c3C)c12)C(=O)O` [Example 61, (2R)-2-{[(3Ra)-3-{3-chloro-2-methyl-4-[2-(4-methylpiperazin-1-yl)ethoxy]phenyl}-2-(4-fluorophenyl)-1-benzofuran-4-yl]oxy}-3-(2-methoxyphenyl)propanoic acid], the “percentage fluorescence polarization inhibition” value on Mcl-1 protein (setting [4]) amounted to 52.8% @ 10 μM.

Consider `COc1ccccc1CC(Oc1cccc2oc(-c3ccc(F)cc3)c(-c3ccc(OCCN4CCN(C)CC4)c(Cl)c3C)c12)C(=O)O` [Example 62, (2R)-2-{[(3Sa)-3-{3-chloro-2-methyl-4-[2-(4-methylpiperazin-1-yl)ethoxy]phenyl}-2-(4-fluorophenyl)-1-benzofuran-4-yl]oxy}-3-(2-methoxyphenyl)propanoic acid], for which the IC50 at Mcl-1 protein (setting [2]) was 8.2e-07 M. On the same count and under the same terms, under `Cc1c(-c2c(-c3ccc(F)cc3)oc3cccc(OC(Cc4ccccc4OCC(F)(F)F)C(=O)O)c23)ccc(OCCN2CCN(C)CC2)c1Cl` [Example 65, (2R)-2-{[(3Sa)-3-{3-chloro-2-methyl-4-[2-(4-methylpiperazin-1-yl)ethoxy]phenyl}-2-(4-fluorophenyl)-1-benzofuran-4-yl]oxy}-3-[2-(2,2,2-trifluoroethoxy)phenyl]propanoic acid] stands 1e-06 M. Still for that read-out and setting: the figure for `Cc1c(-c2c(-c3ccc(F)cc3)oc3cc(F)cc(OC(Cc4ccccc4OCC(F)(F)F)C(=O)O)c23)ccc(OCCN2CCN(C)CC2)c1Cl` [Example 66, (2R)-2-{[(3Sa)-3-{3-chloro-2-methyl-4-[2-(4-methylpiperazin-1-yl)ethoxy]phenyl}-6-fluoro-2-(4-fluorophenyl)-1-benzofuran-4-yl]oxy}-3-[2-(2,2,2-trifluoroethoxy)phenyl]propanoic acid] is 1.6e-06 M.

Consider `Cc1c(Cl)cccc1-c1csc2ccnc(N[C@H](Cc3ccccc3)C(=O)O)c12` [Example 70, N-[3-(3-chloro-2-methylphenyl)thieno[3,2-c]pyridin-4-yl]-D-phenylalanine], for which the inhibition at 10 µM on Mcl-1 protein (@ 10 μM test compound, partial inhibitors, read-out: percentage fluorescence polarization inhibition) stood at 13.6%.
